Reference: paper PMC6117411, “De novo Transcriptome Characterization of Rhodomyrtus tomentosa Leaves and Identification of Genes Involved in α/β-Pinene and β-Caryophyllene Biosynthesis” (Frontiers in Plant Science, 2018)

Assays:
Assay type in all cases: biochemical
Conditions in all cases: 25 mM HEPES pH 7.0, 10 mM MgCl2, 5 mM DTT, 10 mM substrate, 30 C, 30 min
[1] = target: T1, RtTPS1 (Rhodomyrtus tomentosa, UniProt A0A385J6X8); test: product formation by GC-MS
T1 construct: gene TPS1; 38 residues upstream of RRX8W motif; TPS-b subfamily
T1 sequence (A0A385J6X8 1-581): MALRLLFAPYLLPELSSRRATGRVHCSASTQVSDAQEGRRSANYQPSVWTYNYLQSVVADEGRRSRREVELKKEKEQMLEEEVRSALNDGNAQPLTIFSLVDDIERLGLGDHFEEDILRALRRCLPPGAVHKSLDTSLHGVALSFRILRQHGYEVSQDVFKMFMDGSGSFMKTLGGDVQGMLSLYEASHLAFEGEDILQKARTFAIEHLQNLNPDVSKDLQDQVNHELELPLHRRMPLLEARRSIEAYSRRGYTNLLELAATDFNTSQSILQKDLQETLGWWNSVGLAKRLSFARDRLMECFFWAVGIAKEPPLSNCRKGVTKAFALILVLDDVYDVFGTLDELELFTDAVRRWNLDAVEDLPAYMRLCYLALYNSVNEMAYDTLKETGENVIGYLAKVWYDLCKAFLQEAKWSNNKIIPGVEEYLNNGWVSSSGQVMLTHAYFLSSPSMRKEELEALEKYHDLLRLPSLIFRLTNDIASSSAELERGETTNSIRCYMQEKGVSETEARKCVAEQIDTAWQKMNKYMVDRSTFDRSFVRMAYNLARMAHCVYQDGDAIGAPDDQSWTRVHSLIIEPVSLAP

[2] = target: T2, RtTPS3 (Rhodomyrtus tomentosa, UniProt A0A385J6Y9); test: product formation by GC-MS
T2 construct: gene TPS3; 52 residues upstream of RRX8W motif; TPS-a subfamily
T2 sequence (A0A385J6Y9 1-597): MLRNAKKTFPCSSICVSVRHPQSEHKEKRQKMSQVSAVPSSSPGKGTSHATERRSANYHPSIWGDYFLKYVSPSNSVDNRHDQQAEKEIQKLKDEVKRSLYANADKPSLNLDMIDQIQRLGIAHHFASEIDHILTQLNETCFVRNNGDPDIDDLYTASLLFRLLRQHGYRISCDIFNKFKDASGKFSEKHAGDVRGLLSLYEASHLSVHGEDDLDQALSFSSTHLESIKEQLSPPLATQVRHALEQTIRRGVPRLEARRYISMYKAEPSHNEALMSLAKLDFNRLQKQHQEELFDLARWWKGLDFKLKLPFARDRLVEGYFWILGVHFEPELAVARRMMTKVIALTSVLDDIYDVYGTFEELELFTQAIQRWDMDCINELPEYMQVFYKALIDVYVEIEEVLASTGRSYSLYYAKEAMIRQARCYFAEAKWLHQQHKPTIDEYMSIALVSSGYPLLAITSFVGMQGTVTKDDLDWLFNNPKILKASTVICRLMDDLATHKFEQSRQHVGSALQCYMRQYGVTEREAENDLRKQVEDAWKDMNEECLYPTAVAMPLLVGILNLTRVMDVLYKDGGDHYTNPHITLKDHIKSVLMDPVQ

[3] = target: T3, RtTPS4 (Rhodomyrtus tomentosa, UniProt A0A385J6Y5); test: product formation by GC-MS and chiral GC-FID
T3 construct: gene TPS4; 48 residues upstream of RRX8W motif; TPS-a subfamily
T3 sequence (A0A385J6Y5 1-594): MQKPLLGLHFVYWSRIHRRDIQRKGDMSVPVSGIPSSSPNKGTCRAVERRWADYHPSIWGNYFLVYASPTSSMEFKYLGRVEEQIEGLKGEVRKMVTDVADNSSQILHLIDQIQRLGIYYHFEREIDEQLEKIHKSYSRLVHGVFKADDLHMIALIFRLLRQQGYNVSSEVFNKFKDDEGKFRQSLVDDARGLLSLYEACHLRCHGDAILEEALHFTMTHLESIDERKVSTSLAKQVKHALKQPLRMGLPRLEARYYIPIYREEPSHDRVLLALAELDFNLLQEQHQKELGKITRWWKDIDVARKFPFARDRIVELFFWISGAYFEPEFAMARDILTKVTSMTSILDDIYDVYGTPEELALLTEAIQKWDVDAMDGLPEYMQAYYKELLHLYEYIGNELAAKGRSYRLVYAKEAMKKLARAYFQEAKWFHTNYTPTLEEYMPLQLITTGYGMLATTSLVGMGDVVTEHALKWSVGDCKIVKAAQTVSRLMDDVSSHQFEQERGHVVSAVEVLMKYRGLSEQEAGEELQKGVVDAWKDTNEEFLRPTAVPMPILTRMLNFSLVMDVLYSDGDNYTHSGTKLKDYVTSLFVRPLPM

[4] = target: T4, RtTPS2 (Rhodomyrtus tomentosa, UniProt A0A385J6Y6); test: product formation by GC-MS and chiral GC-FID
T4 construct: gene TPS2; TPS-b subfamily
T4 sequence (A0A385J6Y6 1-599): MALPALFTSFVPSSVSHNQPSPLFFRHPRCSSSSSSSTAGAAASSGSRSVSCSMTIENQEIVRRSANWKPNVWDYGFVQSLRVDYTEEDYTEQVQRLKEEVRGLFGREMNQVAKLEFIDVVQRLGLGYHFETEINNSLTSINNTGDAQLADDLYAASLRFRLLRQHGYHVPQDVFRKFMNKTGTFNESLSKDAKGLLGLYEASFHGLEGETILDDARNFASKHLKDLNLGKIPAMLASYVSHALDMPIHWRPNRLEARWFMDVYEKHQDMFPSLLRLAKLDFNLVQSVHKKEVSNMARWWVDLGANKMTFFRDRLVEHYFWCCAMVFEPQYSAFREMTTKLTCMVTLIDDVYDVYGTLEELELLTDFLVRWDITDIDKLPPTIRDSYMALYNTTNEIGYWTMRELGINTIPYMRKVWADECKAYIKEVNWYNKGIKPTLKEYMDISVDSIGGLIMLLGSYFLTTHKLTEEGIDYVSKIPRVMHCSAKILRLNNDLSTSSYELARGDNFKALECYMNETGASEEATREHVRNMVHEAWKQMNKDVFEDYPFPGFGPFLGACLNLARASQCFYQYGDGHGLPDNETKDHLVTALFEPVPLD

[5] = target: T2, RtTPS3; test: product formation by GC-MS and chiral GC-FID
[6] = target: T1, RtTPS1; test: product formation by GC-MS and chiral GC-FID

| Compound | product formation by GC-MS [1] | product formation by GC-MS [2] | product formation by GC-MS and chiral GC-FID [3] | product formation by GC-MS and chiral GC-FID [4] | product formation by GC-MS and chiral GC-FID [5] | product formation by GC-MS and chiral GC-FID [6] |
| --- | --- | --- | --- | --- | --- | --- |
| CC(C)=CCC/C(C)=C/CC/C(C)=C/COP(=O)(O)OP(=O)(O)O [FPP] | RtTPS1 and RtTPS3 are also active with FPP, producing β-caryophyllene | RtTPS1 and RtTPS3 are also active with FPP, producing β-caryophyllene | – | – | – | – |
| CC(C)=CCC/C(C)=C/COP(=O)(O)OP(=O)(O)O [GPP] | – | – | RtTPS1-4 produce mainly (+)-α-pinene and (+)-β-pinene | RtTPS1-4 produce mainly (+)-α-pinene and (+)-β-pinene | RtTPS1-4 produce mainly (+)-α-pinene and (+)-β-pinene | RtTPS1-4 produce mainly (+)-α-pinene and (+)-β-pinene |
